# Columns and labels:
# αvβ3 integrin receptor = details: compared with antibody molecules; no reference given at the statement; cited from earlier work
# Source text: However, compared with antibody molecules, small molecule ligands have a much weaker affinity to their receptors, which makes their tumor enrichment not always ideal. In our former work, we coupled a very promising photosensitizer, pyropheophorbide-a (Pyro), which has ideal photosensitizer properties, with a small molecule tumor homing ligand—cyclo(-RGDfK-)—to prepare a tumor-targeted conjugate. The cyclic peptide cyclo(-RGDfK-), which contains a conformationally restrained RGD sequence, has been often used for targeting tumor imaging and/or therapeutic agents as a high affinity ligand ...
# [1] = target: human isolated αvβ3 integrin receptors (ITGAV&ITGB3 heterodimer) (Homo sapiens, UniProt P05106+P06756); assay: Receptor binding assay: competitive inhibition of biotinylated vitronectin binding to αvβ3 integrin; details: for IC50: biotinylated vitronectin 2.0 μg/mL, integrin 2.0 μg/mL in PBS pH 7.4, 4 °C overnight, test compounds 10^−3 to 10^−11 M, 3 h, 37 °C shaker, streptavidin–HRP/TMB, absorbance 450 nm, nonlinear regression GraphPad Prism 5.0, means ± SD of triplicate determinations
# Method: Human integrin αvβ3 (ITGAV&ITGB3) heterodimer protein was diluted to 2.0 μg/mL in PBS buffer (pH 7.4) and was then added to a 96-well plate (100 μL/well) and incubated overnight at 4 °C. The plate was blocked with 10% milk solution for an additional 2 h in a 37 °C shaker, followed by a 3 h incubation in the 37 °C shaker with various concentrations (10^−3 to 10^−11 M) of test compounds in the presence of biotinylated vitronectin (2.0 μg/mL). After washing, the plates were incubated for 1 h in the 37 °C shaker with streptavidin–HRP and then washed again, followed by 30 min of incubation with 100 μL/well TMB single-component substrate solution before stopping the reaction with the addition of 100 μL/well 2.0 N H2SO4. The absorbance at 450 nm was read on a microplate reader. Each data point represents the average of the triplicate wells, and data analysis was performed using nonlinear regression analysis with GraphPad Prism 5.0 software (GraphPad Software, Inc., San Diego, CA, USA.).
# [2] = Singlet oxygen quantum yield in DMSO; assay type: physicochemical; details: DPBF as the quencher and Pyro as the reference
# Method: (§1) The UV–Vis absorption spectra and fluorescence spectra of the synthesized conjugates of Pyro-MonoRGD, Pyro-DiRGD, Pyro-TriRGD, and free Pyro were measured in DMSO. Absorption spectra were recorded from 300 to 800 nm. Fluorescence emission and excitation spectra were recorded from 550 to 800 nm upon excitation at approximately 668 nm and emission at 672–673 nm using a Hitachi model F-4500 FL spectrophotometer (Tokyo, Japan). The singlet oxygen quantum yields (ΦΔ) of the conjugates were measured in DMSO using DPBF as the quencher and Pyro as the reference.
# [3] = UV–Vis absorption and fluorescence spectra in DMSO; assay type: physicochemical; details: for λmax: UV–Vis absorption in DMSO, Q-band, recorded from 300 to 800 nm; for λem: fluorescence emission in DMSO, Hitachi F-4500, 2.0 µM, excitation at approximately 668 nm; for Stokes Shift: in DMSO
# Method: as §1
# [4] = cited from earlier work
# Source text: (§2) Pyro is a very promising photosensitizer with ideal photoactivity properties, including a high extinction coefficient (3.79 × 10^4 L mol^−1 cm^−1) and a high singlet oxygen quantum yield (over 50%). […] Solving the tumor enrichment problem is very important for its clinical application. Here, to further increase the affinity of RGD peptide-coupled Pyro conjugates to the receptor αvβ3 integrin, we synthesized multimeric RGD-coupled Pyro conjugates to increase the affinity via multivalent and cluster effects, thereby improving the upt ...
# tumors in a mouse model = details: general statement on Pyro; no reference given at the statement; cited from earlier work
# Source text: as §2
# U87-MG tumor [5] = assay type: in vivo, Balb/c nude mice; human U87-MG cells
# Source text: To examine the tumor enrichment of these conjugates in vivo, we prepared a xenograft tumor model by subcutaneously inoculating mice with U87-MG tumor cells ([…]) on the axilla. U87-MG cells have high expression levels of the αvβ3 integrin receptor. When the tumors grew to approximately 200 mm^3 in volume, the conjugates (50 nmol per mouse) were intravenously injected into the mice via the tail vein. The fluorescence signal and intensity distribution were continuously monitored using an in vivo fluorescence imaging system (IVIS Lumina II, Xenogen, Alameda, CA, USA). […] However, relatively weak fluorescence signals in the tumor site could be detected. […] The increased water hydrophilicity of the divalent and trivalent conjugates may contribute to the reduction in the liver accumulation.
# Human U87-MG cells (4 × 10^6 cells/mouse) were subcutaneously inoculated on the axilla of female Balb/c nude mice. […] In vivo fluorescence analysis was performed before and after the injection at various time points using the IVIS Lumina imaging system (IVIS Lumina II, Xenogen, USA) with a Cy5.5 filter (excitation: 615–665 nm, emission: 695–770 nm). Alternatively, the mice were euthanized at 2 h postinjection, and major organs, including the heart, liver, spleen, lungs, kidneys, and muscles, as well as the tumor, were collected; fluorescence images were then acquired.
# U87-MG tumor [6] = assay type: in vivo, Balb/c nude mice; human U87-MG cells; details: 50 nmol/mouse i.v.; mice euthanized 2 h postinjection; vs the other two conjugates; triplicates
# Method: To further verify the tumor targeting ability of these conjugates, the mice were euthanized 2 h postinjection, and their organs were collected for imaging. As shown in Figure 3B (heart, liver, spleen, lungs, and tumor from left to right), when the valence of the conjugates increased, the fluorescence signal in the tumor region increased.
# Human U87-MG cells (4 × 10^6 cells/mouse) were subcutaneously inoculated on the axilla of female Balb/c nude mice. When the tumors grew to 200 mm^3, the mice were divided into three groups with each group containing three mice. The mice were then intravenously injected with 50 nmol/mouse of Pyro-MonoRGD, Pyro-DiRGD, and Pyro-TriRGD, respectively. In vivo fluorescence analysis was performed before and after the injection at various time points using the IVIS Lumina imaging system (IVIS Lumina II, Xenogen, USA) with a Cy5.5 filter (excitation: 615–665 nm, emission: 695–770 nm). Alternatively, the mice were euthanized at 2 h postinjection, and major organs, including the heart, liver, spleen, lungs, kidneys, and muscles, as well as the tumor, were collected; fluorescence images were then acquired.
IC50 [1] [nM],Molecule,singlet oxygen quantum yield ΦΔ [2],λmax [3] [nm],λem [3] [nm],Stokes Shift [3] [nm],other results
–,cyclo(-RGDfK-),–,–,–,–,affinity to αvβ3 integrin receptor (αvβ3 integrin receptor): only has a moderate affinity to the αvβ3 integrin receptor
951 ± 39.6,C=Cc1c(C)c2cc3nc(c4c5[nH]c(cc6nc(cc1[nH]2)C(C)=C6CC)c(C)c5C(=O)C4)[C@@H](CCC(=O)NCCCOCCOCCOCCCNC(=O)C[C@@H]1NC(=O)[C@@H](Cc2ccccc2)NC(=O)[C@H](CC(=O)O)NC(=O)CNC(=O)[C@H](CCCNC(=N)N)NC1=O)[C@@H]3C [Pyro-MonoRGD],–,–,–,–,–
–,"C=Cc1c(C)c2cc3nc(c4c5[nH]c(cc6nc(cc1[nH]2)C(C)=C6CC)c(C)c5C(=O)C4)[C@@H](CCC(=O)O)[C@@H]3C [Pyro, pyropheophorbide-a, reference compound]",0.52,668,673,5,extinction coefficient [4]: 37900 L/mol/cm; singlet oxygen quantum yield [4]: over 50%; tumor localization ability (tumors in a mouse model): very limited tumor localization ability
313 ± 23.1,C=Cc1c(C)c2cc3nc(c4c5[nH]c(cc6nc(cc1[nH]2)C(C)=C6CC)c(C)c5C(=O)C4)[C@@H](CCC(=O)NC(COCCC(=O)NCCCOCCOCCOCCCNC(=O)C[C@@H]1NC(=O)[C@@H](Cc2ccccc2)NC(=O)[C@H](CC(=O)O)NC(=O)CNC(=O)[C@H](CCCNC(=N)N)NC1=O)COCCC(=O)NCCCOCCOCCOCCCNC(=O)C[C@@H]1NC(=O)[C@@H](Cc2ccccc2)NC(=O)[C@H](CC(=O)O)NC(=O)CNC(=O)[C@H](CCCNC(=N)N)NC1=O)[C@@H]3C (stereo partly drawn) [Pyro-DiRGD],0.47,668,673,5,–
43.8 ± 8.2,C=Cc1c(C)c2cc3nc(c4c5[nH]c(cc6nc(cc1[nH]2)C(C)=C6CC)c(C)c5C(=O)C4)[C@@H](CCC(=O)NC(COCCC(=O)NCCCOCCOCCOCCCNC(=O)C[C@@H]1NC(=O)[C@@H](Cc2ccccc2)NC(=O)[C@H](CC(=O)O)NC(=O)CNC(=O)[C@H](CCCNC(=N)N)NC1=O)(COCCC(=O)NCCCOCCOCCOCCCNC(=O)C[C@@H]1NC(=O)[C@@H](Cc2ccccc2)NC(=O)[C@H](CC(=O)O)NC(=O)CNC(=O)[C@H](CCCNC(=N)N)NC1=O)COCCC(=O)NCCCOCCOCCOCCCNC(=O)C[C@@H]1NC(=O)[C@@H](Cc2ccccc2)NC(=O)[C@H](CC(=O)O)NC(=O)CNC(=O)[C@H](CCCNC(=N)N)NC1=O)[C@@H]3C (stereo partly drawn) [Pyro-TriRGD],0.48,668,673,5,"tumor accumulation, 2–6 h postinjection (U87-MG tumor [5]; 50 nmol/mouse i.v., 2–6 h postinjection): excellent tumor accumulation at 2–6 h postinjection; tumor enrichment, overall comparison (U87-MG tumor [5]; compared with the other two conjugates): had the best tumor enrichment compared with the other two conjugates; binding to integrin αvβ3, fold better than Pyro-DiRGD ([1]; ratio vs divalent Pyro-DiRGD): 7 -fold; binding to integrin αvβ3, fold better than Pyro-MonoRGD ([1]; ratio vs monovalent Pyro-MonoRGD): 20 -fold; fluorescence intensity in excised tumor, 2 h postinjection (U87-MG tumor [6]): the highest fluorescence intensity at the tumor site"
